Test systems include Escherichia coli; Staphylococcus aureus; Bacillus subtilis; Enterococcus faecalis VR; Staphylococcus aureus MR; Salmonella typhimurium; Pseudomonas aeruginosa; Candida albicans SC5314; Candida krusei ATCC 6258; Candida albicans C627; Pseudomonas aeruginosa 2; Pseudomonas aeruginosa 1; Klebsiella pneumoniae 2; Escherichia coli C600; Escherichia coli 1; Klebsiella pneumoniae 1.
Common to all, as to assay: ≥ marks a high value that may be exact or a test limit, other limits are often not marked, values filed in µg/mL are converted to µM
Assay [1] deals with Staphylococcus epidermidis.
The subject of assay [2] is Staphylococcus aureus ATCC 33592.
For assay [3], the system named is Staphylococcus aureus NCTC 8530.
For assay [4], the system named is Pseudomonas aeruginosa ATCC 27853.
The test system of assay [5] is Candida tropicalis ATCC 13803.
In assay [6] the test system is Candida parapsilosis ATCC 22019.
Assay [7] relates to Staphylococcus aureus ATCC 25923.
Assay [8] deals with Pseudomonas aeruginosa 213.
Assay [9] relates to Enterococcus faecium mic80.
Assay [10] has as its system Staphylococcus aureus C623.
In assay [11] the test system is Pseudomonas aeruginosa LES400.
For assay [12], the system named is Pseudomonas aeruginosa H103.
In assay [13] the test system is Escherichia coli ESBL 63103.
The test system of assay [14] is Escherichia coli NCTC 10418.
For assay [15], the system named is Staphylococcus aureus NCTC 10788.
In assay [16] the test system is Candida albicans NCPF 1467.
Assay [17] concerns Staphylococcus aureus ATCC 12493.
Assay [18] concerns Pseudomonas aeruginosa PAO1.
Assay [19] deals with Staphylococcus aureus ATCC 33591.
Assay [20] relates to Staphylococcus aureus 209P.
Assay [21] has as its system Escherichia coli ATCC 25922.
In assay [22] the test system is Staphylococcus aureus ATCC 9144.
Assay [23] deals with Candida glabrata ATCC 15126.
Assay [24] deals with Candida albicans ATCC 10231.
Assay [25] has as its system Klebsiella pneumoniae ATCC 700603.
The test system of assay [26] is Enterococcus faecalis PCM 2673.
The subject of assay [27] is Escherichia coli ATCC 23506.
For assay [28], the system named is Pseudomonas aeruginosa ATCC 9027.
The subject of assay [29] is Streptococcus pneumoniae ATCC 49619.
For assay [30], the system named is Aspergillus niger ATCC 16404.

In brackets after ≈: the same amount, converted by molar mass. Several values for one entry are separate records, joined by “and”; a condition that tells them apart may be missing. Equal values may be shown once.

Consider `CC(C)C[C@H](NC(=O)CNC(=O)[C@H](C)NC(=O)[C@H](CCCN=C(N)N)NC(=O)[C@H](CO)NC(=O)[C@H](CO)NC(=O)[C@H](CCCN=C(N)N)NC(=O)[C@@H](N)[C@@H](C)O)C(=O)N[C@@H](CCC(N)=O)C(=O)N[C@@H](Cc1c[nH]c2ccccc12)C(=O)N1CCC[C@H]1C(=O)N[C@H](C(=O)NCC(=O)N[C@@H](CCCN=C(N)N)C(=O)N[C@H](C(=O)N[C@@H](Cc1cnc[nH]1)C(=O)N[C@@H](CCCN=C(N)N)C(=O)N[C@@H](CC(C)C)C(=O)N[C@@H](CC(C)C)C(=O)N[C@@H](CCCN=C(N)N)C(=O)N[C@@H](CCCCN)C(=O)O)C(C)C)C(C)C` [TRSSRAGLQWPVGRVHRLLRK], for which the MIC (usually the smallest concentration in the dilution series that meets the test's criterion for growth inhibition) with Escherichia coli was 1 µM (≈ 2.47 µg/mL); in the assay with Staphylococcus aureus, 1 µM (≈ 2.47 µg/mL); with Bacillus subtilis it was 0.5 µM (≈ 1.24 µg/mL); in the assay on Enterococcus faecalis VR, 1 µM (≈ 2.47 µg/mL); in [1] it was 2 µM (≈ 4.95 µg/mL); against Staphylococcus aureus MR, 0.707 µM (≈ 1.75 µg/mL). Further, the MIC with Salmonella typhimurium was 0.5 µM (≈ 1.24 µg/mL); in the assay on Pseudomonas aeruginosa, 2 µM (≈ 4.95 µg/mL).

With `CC[C@H](C)[C@H](NC(=O)[C@H](Cc1ccccc1)NC(=O)[C@H](CC(C)C)NC(=O)[C@H](CCCN=C(N)N)NC(=O)[C@@H](NC(=O)[C@H](CCCCN)NC(=O)[C@@H](NC(=O)[C@H](CC(C)C)NC(=O)[C@@H](N)C(C)C)[C@@H](C)CC)[C@@H](C)O)C(=O)N[C@@H](CCCCN)C(=O)N[C@@H](CCCN=C(N)N)C(=O)N[C@@H](CCCCN)C(=O)O` [VLIKTRLFIKRK], the figures for the MIC in assay [2], in [3] and in [4] were 4 µM (≈ 6.06 µg/mL), 8 µM (≈ 12.1 µg/mL) and 8 µM (≈ 12.1 µg/mL), respectively.

Take `NCCCC[C@H](NC(=O)[C@H](Cc1ccc(O)cc1)NC(=O)[C@H](CCCCN)NC(=O)[C@@H](N)CS)C(=O)N[C@@H](Cc1c[nH]c2ccccc12)C(=O)N[C@@H](CCCN=C(N)N)C(=O)O` [CKYKWR]: the MIC was not below 113 µM in the assay on Candida albicans SC5314, not below 56.6 µM in assay [5], not below 113 µM against Candida krusei ATCC 6258 and not below 113 µM in assay [6].

Consider `CC[C@H](C)[C@H](NC(=O)[C@H](Cc1c[nH]c2ccccc12)NC(=O)[C@H](CCCN=C(N)N)NC(=O)[C@H](Cc1c[nH]c2ccccc12)NC(=O)[C@H](Cc1c[nH]c2ccccc12)NC(=O)[C@H](CCCN=C(N)N)NC(=O)[C@H](CCCCN)NC(=O)[C@H](Cc1c[nH]c2ccccc12)NC(=O)[C@@H](N)CCCN=C(N)N)C(=O)O` [RWKRWWRWI], for which the MIC in assay [7] came out at 5.43 µM (≈ 8 µg/mL); in [8] it was 21.7 µM (≈ 32 µg/mL); in assay [9] it was 21.7 µM (≈ 32 µg/mL); in assay [10], 2.72 µM (≈ 4 µg/mL); in [11], 21.7 µM (≈ 32 µg/mL); in [12], 2.72 µM (≈ 4 µg/mL). The MIC in the assay with Candida albicans C627 amounted to 2.72 µM (≈ 4 µg/mL); in assay [13], 10.9 µM (≈ 16 µg/mL).

For `CC(C)C[C@H](NC(=O)[C@H](CC(C)C)NC(=O)[C@H](CC(C)C)NC(=O)[C@@H]1CCCN1C(=O)[C@H](CC(C)C)NC(=O)[C@@H](N)Cc1ccccc1)C(=O)N[C@@H](C)C(=O)NCC(=O)N[C@@H](CC(C)C)C(=O)N1CCC[C@H]1C(=O)N[C@@H](CCCCN)C(=O)N[C@@H](Cc1ccccc1)C(=O)N[C@@H](CC(C)C)C(=O)N[C@H]1CSSC[C@@H](C(=O)O)NC(=O)[C@H](CCCCN)NC(=O)[C@H](CCCCN)NC(=O)[C@H](Cc2ccccc2)NC(=O)[C@H](C(C)C)NC(=O)[C@H](CC(C)C)NC1=O` [FLPLLLAGLPKFLCLVFKKC], the MIC was not below 512 µM in assay [14], 16 µM (≈ 36.2 µg/mL) in assay [15], 16 µM (≈ 36.2 µg/mL) in [16] and 16 µM (≈ 36.2 µg/mL) in [17].

Take `CC(C)[C@@H]1NC(=O)CNC(=O)[C@H](CCCN=C(N)N)NC(=O)[C@H](C(C)C)NC(=O)[C@H](CCCN=C(N)N)NC(=O)[C@H](C)NC(=O)[C@H](Cc2ccc(O)cc2)NC(=O)[C@H](C(C)C)NC(=O)[C@@H](NC(=O)[C@H](Cc2c[nH]c3ccccc23)NC(=O)[C@@H](N)CCCN=C(N)N)CSSC[C@@H](C(=O)N[C@@H](Cc2c[nH]c3ccccc23)C(=O)O)NC(=O)[C@H](CCCN=C(N)N)NC(=O)[C@H](CCCN=C(N)N)NC(=O)[C@H](Cc2ccc(O)cc2)NC(=O)[C@H](CCCN=C(N)N)NC1=O` [RWCVYARVRGVRYRRCW]: the MIC against Pseudomonas aeruginosa 2 was 4 µM (≈ 9.13 µg/mL); against Escherichia coli it was 1 µM (≈ 2.28 µg/mL); in assay [18], 6.25 µM (≈ 14.3 µg/mL); in assay [19], 0.06 µM (≈ 0.137 µg/mL); against Pseudomonas aeruginosa 1 it was 2 µM and 4 µM; in the assay on Klebsiella pneumoniae 2 it was 2 µM (≈ 4.57 µg/mL). The MIC in assay [20] is 1.56 µM (≈ 3.56 µg/mL); with Escherichia coli C600, 1.56 µM (≈ 3.56 µg/mL); with Escherichia coli 1, 1 µM and 0.5 µM; with Klebsiella pneumoniae 1 it was 1 µM and 2 µM.

Take `CC[C@H](C)[C@H](NC(=O)CNC(=O)[C@H](CCCN=C(N)N)NC(=O)[C@@H](NC(=O)[C@H](CC(C)C)NC(=O)[C@H](CO)NC(=O)CNC(=O)[C@@H](NC(=O)[C@@H](N)CC(C)C)[C@@H](C)CC)C(C)C)C(=O)N[C@@H](CC(C)C)C(=O)N1CCC[C@H]1C(=O)N[C@@H](CC(C)C)C(=O)N[C@@H](Cc1ccccc1)C(N)=O` [LIGSLVRGILPLF]: the MIC in [7] was 45.8 µM (≈ 64 µg/mL); in [21], 183 µM (≈ 256 µg/mL); in assay [22], not below 45.8 µM; in assay [23], not below 183 µM; in assay [24], 183 µM (≈ 256 µg/mL); in [25], 91.6 µM (≈ 128 µg/mL). The MIC in assay [26] is not below 183 µM; in [27] it was not below 183 µM; in assay [28], 183 µM (≈ 256 µg/mL); in assay [29] it was not below 183 µM; in assay [30], not below 183 µM.

For the origin of these results see DBAASP.
